Reference: patent US10138233B2, “Imidazole compounds as modulators of FSHR and uses thereof” (Merck Patent GmbH, priority 2013, dated 2018)
pEC50: −log10 of the molar value.

Target: T1, FSHR (Homo sapiens, UniProt P23945)
T1 construct: expressed in transfected cells; host or cells: CHO cells, clone Cho-FSHR-LUC-1-1-43
T1 sequence (P23945 18-695): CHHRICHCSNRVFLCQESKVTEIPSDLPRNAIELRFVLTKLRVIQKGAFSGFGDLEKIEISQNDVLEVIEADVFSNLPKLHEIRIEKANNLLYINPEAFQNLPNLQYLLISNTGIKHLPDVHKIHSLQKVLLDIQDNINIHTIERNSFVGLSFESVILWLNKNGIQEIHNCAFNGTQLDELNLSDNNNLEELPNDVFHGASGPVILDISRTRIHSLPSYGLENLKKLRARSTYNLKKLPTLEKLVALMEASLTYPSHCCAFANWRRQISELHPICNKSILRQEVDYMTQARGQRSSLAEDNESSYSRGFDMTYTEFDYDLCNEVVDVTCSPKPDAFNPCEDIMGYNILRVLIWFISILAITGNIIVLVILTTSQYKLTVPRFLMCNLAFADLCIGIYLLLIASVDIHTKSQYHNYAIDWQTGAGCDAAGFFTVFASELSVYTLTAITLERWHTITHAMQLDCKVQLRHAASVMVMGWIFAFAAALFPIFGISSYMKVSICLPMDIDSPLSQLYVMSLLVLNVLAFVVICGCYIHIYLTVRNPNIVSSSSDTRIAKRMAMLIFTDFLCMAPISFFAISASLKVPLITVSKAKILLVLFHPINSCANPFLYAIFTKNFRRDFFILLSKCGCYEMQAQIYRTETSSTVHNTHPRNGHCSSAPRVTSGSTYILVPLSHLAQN
Assay: EC50 of cyclic AMP production in CHO FSHR cells + EC20 FSH (Assay A)
Type: cell-based
Settings: CHO-FSHR-LUC cells, in presence of EC20 FSH, cAMP HTRF, 1 h 37° C.
Description: EC50 of cyclic AMP production in CHO FSHR cells+EC20 FSH (Assay A)
2500 Cho-FSHR-LUC-1-1-43 cells were plated per well in 5 μl of phenol red free DMEM/F12+1% FBS. […] Cells were assayed by adding 100 μl of 2×EC20 FSH/IBMX in DMEM/F12+0.1% BSA) by Multidrop to 2 μl of test compound stamped in 384 well plates (compounds are diluted 1:50). […] The compound plate map was as follows: Column 1: 2 μl of DMSO; Column 2: 2 μl of DMSO; Columns 3-12 and 13-24: 2 μl of test compound, diluted 1:4 in 100% DMSO, or 2 μl of FSH, diluted 1:4 in DMEM/F12+0.1% BSA. The starting concentration for FSH was 50 nM (final concentration was 0.5 nM). […] 10 μl of mixed HTRF (CisBio #62AM4PEC) reagents were added per well and incubated at room temperature for 1 h. The plates were read on Envision using the cAMP HTRF—low volume 384 well protocol. […] Values given in percent (%) indicate the percental effect (response) at a certain concentration of agonist relative to the maximum response of the FSH standard.

SMILES	pEC50
COc1cc2c(cc1CC(C)C)-n1c(-c3cccn3C(=O)OC(C)(C)C)nc(C(=O)N3CCOCC3(C)C)c1CC2 [Compound 26, 2-[3-(3,3-Dimethyl-morpholine-4-carbonyl)-8-isobutyl-7-methoxy-4,5-dihydro-imidazo[1,5-a]quinolin-1-yl]-pyrrole-1-carboxylic acid tert-butyl ester]	5.30 to 6.00
COc1cc2c(cc1OC(C)C)-n1c(-c3cnn(C)c3C)nc(C(=O)N3CCOCC3(C)C)c1CC2 [Compound 35]	< 5.30
COc1cc2c(cc1OC(C)C)-n1c(-c3cccs3)nc(C(=O)NC3(CO)COC3)c1CO2 [Compound 137, 8-Isopropoxy-7-methoxy-1-thiophen-2-yl-4H-5-oxa-2,9b-diaza-cyclopenta[a]naphthalene-3-carboxylic acid (3-hydroxymethyl-oxetan-3-yl)-amide]	5.30 to 6.00
COc1cc2c(cc1OC(C)C)-n1c(-c3cc(C)nn3C)nc(C(=O)N3CCOCC3(C)C)c1CC2 [Compound 42]	6.00 to 7.00
COc1cc2c(cc1OC(C)C)-n1c(-c3cn(C)nn3)nc(C(=O)N3CCOCC3(C)C)c1CC2 [Compound 52]	< 5.30
COc1cc2c(cc1-c1n[nH]c(=O)o1)-n1c(-c3cccs3)nc(C(=O)N(C)C(C)(C)C)c1CC2 [Compound 132, 7-Methoxy-8-(5-oxo-4,5-dihydro-[1,3,4]oxadiazol-2-yl)-1-thiophen-2-yl-4,5-dihydro-imidazo[1,5-a]quinoline-3-carboxylic acid tert-butyl-methyl-amide]	6.00 to 7.00
COc1cc2c(cc1-c1n[nH]c(=S)o1)-n1c(-c3cccs3)nc(C(=O)N(C)C(C)(C)C)c1CC2 [Compound 133, 7-Methoxy-1-thiophen-2-yl-8-(5-thioxo-4,5-dihydro-[1,3,4]oxadiazol-2-yl)-4,5-dihydro-imidazo[1,5-a]quinoline-3-carboxylic acid tert-butyl-methyl-amide]	> 7.00
COc1cc2c(cc1OC(C)C)-n1c(-c3cn(C)cn3)nc(C(=O)N3CCOCC3(C)C)c1CC2 [Compound 46]	< 5.30
COc1cc2c(cc1OC(C)C)-n1c(-c3cccc4cn[nH]c34)nc(C(=O)N3CCOCC3(C)C)c1CC2 [Compound 89]	5.30 to 6.00
COc1cc(-c2nc(C(=O)N3CCOCC3(C)C)c3n2-c2cc(OC(C)C)c(OC)cc2CC3)ccc1F [Compound 108]	5.30 to 6.00
COc1cc2c(cc1OC(C)C)-n1c(C3=CCCN(C)C3)nc(C(=O)N3CCOCC3(C)C)c1CC2 [Compound 93]	< 5.30
COc1cc2c(cc1OC(C)C)-n1c(C3=CCC(C)CC3)nc(C(=O)N3CCOCC3(C)C)c1CC2 (centres unmarked) [Compound 86]	5.30 to 6.00
COc1cc2c(cc1CC(C)C)-n1c(-c3cc(C)cs3)nc(C(=O)N(C)C(C)(C)C)c1CC2 [Compound 95, 8-Isobutyl-7-methoxy-1-(4-methyl-thiophen-2-yl)-4,5-dihydro-imidazo[1,5-a]quinoline-3-carboxylic acid tert-butyl-methyl-amide]	6.00 to 7.00
COc1cc2c(cc1CC(C)C)-n1c(-c3cccs3)nc(C(=O)NC(C)(C)CO)c1CC2 [Compound 24, 8-Isobutyl-7-methoxy-1-thiophen-2-yl-4,5-dihydro-imidazo[1,5-a]quinoline-3-carboxylic acid (2-hydroxy-1,1-dimethyl-ethyl)-amide]	5.30 to 6.00
COc1cc2c(cc1OC(C)C)-n1c(-c3[nH]ncc3C)nc(C(=O)N3CCOCC3(C)C)c1CC2 [Compound 54]	5.30 to 6.00
COc1cc2c(cc1NC(=O)C(C)C)-n1c(-c3cccs3)nc(C(=O)N3CCOCC3(C)C)c1CC2 [Compound 78, N-[3-(3,3-Dimethyl-morpholine-4-carbonyl)-7-methoxy-1-thiophen-2-yl-4,5-dihydro-imidazo[1,5-a]quinolin-8-yl]-isobutyramide]	6.00 to 7.00

SMILES	pEC50
COc1cc2c(cc1OC(C)C)-n1c(-c3ccc(C)c(F)c3)nc(C(=O)N3CCOCC3(C)C)c1CC2 [Compound 126]	6.00 to 7.00
COc1cc2c(cc1-c1ccn(C)c1)-n1c(-c3cccs3)nc(C(=O)NC3(C)COC3)c1CC2 [Compound 98, 7-Methoxy-8-(1-methyl-1H-pyrrol-3-yl)-1-thiophen-2-yl-4,5-dihydro-imidazo[1,5-a]quinoline-3-carboxylic acid (3-methyl-oxetan-3-yl)-amide]	5.30 to 6.00
COc1cc2c(cc1OC(C)C)-n1c(-c3ccc(C#N)c(C(F)(F)F)c3)nc(C(=O)N3CCOCC3(C)C)c1CC2 [Compound 124]	5.30 to 6.00
COc1cc2c(cc1OC(C)C)-n1c(-c3cc(F)c(F)c(Cl)c3)nc(C(=O)N3CCOCC3(C)C)c1CC2 [Compound 122]	6.00 to 7.00
COc1cc2c(cc1OC(C)C)-n1c(C#N)nc(C(=O)N3CCOCC3(C)C)c1CC2 [Compound 145, 3-(3,3-Dimethyl-morpholine-4-carbonyl)-8-isopropoxy-7-methoxy-4,5-dihydro-imidazo[1,5-a]quinoline-1-carbonitrile]	< 5.30
COC(=O)c1nc(C(=O)N(C)C(C)(C)C)c2n1-c1cc(OC(C)C)c(OC)cc1CC2 [Compound 74, 3-(tert-Butyl-methyl-carbamoyl)-8-isopropoxy-7-methoxy-4,5-dihydro-imidazo[1,5-a]quinoline-1-carboxylic acid methyl ester]	5.30 to 6.00
COc1cc2c(cc1OC(C)C)-n1c(-c3ccc(F)s3)nc(C(=O)N(C)C(C)(C)C)c1CC2 [Compound 14]	> 7.00
COc1cc2c(cc1OC)-n1c(-c3ccsc3)nc(C(=O)N(C)C(C)(C)C)c1CC2 [Compound 2, 7,8-Dimethoxy-1-thiophen-3-yl-4,5-dihydro-imidazo[1,5-a]quinoline-3-carboxylic acid tert-butyl-methyl-amide]	6.00 to 7.00
COc1cc2c(cc1OC(C)C)-n1c(C3=CCCC3(C)C)nc(C(=O)N3CCOCC3(C)C)c1CC2 [Compound 100]	> 7.00
COc1cc2c(cc1CC(C)C)-n1c(-c3cc[nH]c3)nc(C(=O)N3CCOCC3(C)C)c1CC2 [Compound 28, (3,3-Dimethyl-morpholin-4-yl)-[8-isobutyl-7-methoxy-1-(1H-pyrrol-3-yl)-4,5-dihydro-imidazo[1,5-a]quinolin-3-yl]-methanone]	6.00 to 7.00
COc1cc2c(cc1OC(C)C)-n1c(-c3cncs3)nc(C(=O)N3CCCN(C(=O)N4CCC4)CC3)c1CC2 [Compound 9]	5.30 to 6.00
COc1cc2c(cc1CC(C)C)-n1c(-c3sccc3C)nc(C(=O)N(C)C(C)(C)C)c1CC2 [Compound 146, 8-Isobutyl-7-methoxy-1-(3-methyl-thiophen-2-yl)-4,5-dihydro-imidazo[1,5-a]quinoline-3-carboxylic acid tert-butyl-methyl-amide]	6.00 to 7.00
COc1cc2c(cc1OC(C)C)-n1c(-c3ccccc3Cl)nc(C(=O)N(C)C(C)(C)C)c1CC2 [Compound 67]	6.00 to 7.00
COc1cc2c(cc1OC(C)C)-n1c(Br)nc(C(=O)N(C)C(C)(C)C)c1CC2 [Compound 4, 1-Bromo-8-isopropoxy-7-methoxy-4,5-dihydro-imidazo[1,5-a]quinoline-3-carboxylic acid tert-butyl-methyl-amide]	< 5.30
COc1cc2c(cc1CC(C)C)-n1c(C3CCOC3)nc(C(=O)N(C)C(C)(C)C)c1CC2 (centres unmarked) [Compound 94, N-(tert-butyl)-8-isobutyl-7-methoxy-N-methyl-1-(tetrahydrofuran-3-yl)-4,5-dihydroimidazo[1,5-a]quinoline-3-carboxamide]	5.30 to 6.00
COc1cc2c(cc1OC(C)C)-n1c(-c3ccc(Cl)c(F)c3)nc(C(=O)N3CCOCC3(C)C)c1CC2 [Compound 109]	6.00 to 7.00
